{"source": "patent US12590088B2", "about": "“Jak inhibitor compound and pharmaceutical composition including the same” (KOREA PHARMA CO., LTD., priority 2019, dated 2026)", "key": {"JAK1": {"biological_target": "JAK1 (Homo sapiens, UniProt P23458)", "sequence (P23458 whole entry)": "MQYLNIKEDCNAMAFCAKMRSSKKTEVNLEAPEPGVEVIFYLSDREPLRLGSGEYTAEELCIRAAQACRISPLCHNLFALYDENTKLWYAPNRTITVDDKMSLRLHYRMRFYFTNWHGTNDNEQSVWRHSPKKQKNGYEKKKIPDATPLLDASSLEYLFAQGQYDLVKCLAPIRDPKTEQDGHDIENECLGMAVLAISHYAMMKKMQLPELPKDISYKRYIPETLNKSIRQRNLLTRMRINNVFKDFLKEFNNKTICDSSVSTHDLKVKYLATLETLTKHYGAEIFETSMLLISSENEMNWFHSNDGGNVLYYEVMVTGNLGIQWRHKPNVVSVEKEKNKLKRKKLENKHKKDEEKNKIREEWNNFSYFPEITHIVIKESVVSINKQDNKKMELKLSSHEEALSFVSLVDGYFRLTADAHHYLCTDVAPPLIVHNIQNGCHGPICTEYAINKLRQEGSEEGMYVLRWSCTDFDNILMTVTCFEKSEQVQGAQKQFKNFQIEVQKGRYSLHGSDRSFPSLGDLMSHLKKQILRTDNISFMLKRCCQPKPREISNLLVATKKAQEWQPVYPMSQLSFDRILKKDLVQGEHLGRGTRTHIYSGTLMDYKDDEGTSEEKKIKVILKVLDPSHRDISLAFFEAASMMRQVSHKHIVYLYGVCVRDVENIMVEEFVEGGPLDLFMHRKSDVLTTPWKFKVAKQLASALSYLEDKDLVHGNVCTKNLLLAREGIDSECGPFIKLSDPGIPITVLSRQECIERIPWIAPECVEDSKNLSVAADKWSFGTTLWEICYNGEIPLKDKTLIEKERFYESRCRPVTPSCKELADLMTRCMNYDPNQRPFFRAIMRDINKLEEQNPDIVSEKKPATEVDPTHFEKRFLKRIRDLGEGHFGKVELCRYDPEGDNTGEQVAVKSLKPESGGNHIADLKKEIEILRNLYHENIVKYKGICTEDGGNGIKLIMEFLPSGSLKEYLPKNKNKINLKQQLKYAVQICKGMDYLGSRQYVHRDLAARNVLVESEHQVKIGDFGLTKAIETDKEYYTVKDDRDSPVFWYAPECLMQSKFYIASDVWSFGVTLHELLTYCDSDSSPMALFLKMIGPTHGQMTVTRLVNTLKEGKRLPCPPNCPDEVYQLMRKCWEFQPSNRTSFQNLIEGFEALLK", "test": "JAK1 IC50 measurement", "type": "biochemical"}, "JAK3 [1]": {"biological_target": "T1, JAK3 (Homo sapiens, UniProt P52333)", "T1 sequence (P52333 1-1124)": "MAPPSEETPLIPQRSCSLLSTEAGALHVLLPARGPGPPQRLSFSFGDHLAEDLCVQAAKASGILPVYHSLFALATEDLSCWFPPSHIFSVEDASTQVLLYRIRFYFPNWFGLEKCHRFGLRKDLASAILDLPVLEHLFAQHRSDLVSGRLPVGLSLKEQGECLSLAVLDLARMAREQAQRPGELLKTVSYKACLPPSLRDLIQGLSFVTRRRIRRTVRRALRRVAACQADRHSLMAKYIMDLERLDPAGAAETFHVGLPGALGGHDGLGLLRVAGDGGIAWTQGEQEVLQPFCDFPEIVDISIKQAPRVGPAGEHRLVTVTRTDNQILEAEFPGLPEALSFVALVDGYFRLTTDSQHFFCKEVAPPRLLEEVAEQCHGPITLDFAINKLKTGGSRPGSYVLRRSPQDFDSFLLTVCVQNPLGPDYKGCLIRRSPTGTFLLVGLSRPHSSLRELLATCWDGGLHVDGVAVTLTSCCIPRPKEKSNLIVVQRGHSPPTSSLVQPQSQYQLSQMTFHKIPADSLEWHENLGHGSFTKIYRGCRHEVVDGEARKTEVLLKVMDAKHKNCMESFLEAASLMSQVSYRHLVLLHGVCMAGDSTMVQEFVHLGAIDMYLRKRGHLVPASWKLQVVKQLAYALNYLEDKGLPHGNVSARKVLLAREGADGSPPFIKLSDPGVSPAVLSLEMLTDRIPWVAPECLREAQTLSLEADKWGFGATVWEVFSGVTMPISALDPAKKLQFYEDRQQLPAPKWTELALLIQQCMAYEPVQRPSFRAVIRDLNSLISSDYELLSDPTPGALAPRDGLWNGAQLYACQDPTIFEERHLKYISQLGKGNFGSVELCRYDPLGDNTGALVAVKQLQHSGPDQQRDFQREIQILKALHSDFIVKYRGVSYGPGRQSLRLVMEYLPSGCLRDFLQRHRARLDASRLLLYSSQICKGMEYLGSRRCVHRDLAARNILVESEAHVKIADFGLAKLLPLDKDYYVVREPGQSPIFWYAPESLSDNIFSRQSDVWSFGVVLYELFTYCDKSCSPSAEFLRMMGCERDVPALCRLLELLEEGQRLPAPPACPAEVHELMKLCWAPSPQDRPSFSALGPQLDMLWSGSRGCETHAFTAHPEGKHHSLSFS", "test": "Cell-based assay on Janus kinase inhibitors, JAK3 (GI50)"}, "JAK2": {"biological_target": "JAK2 (Homo sapiens, UniProt O60674)", "sequence (O60674 whole entry)": "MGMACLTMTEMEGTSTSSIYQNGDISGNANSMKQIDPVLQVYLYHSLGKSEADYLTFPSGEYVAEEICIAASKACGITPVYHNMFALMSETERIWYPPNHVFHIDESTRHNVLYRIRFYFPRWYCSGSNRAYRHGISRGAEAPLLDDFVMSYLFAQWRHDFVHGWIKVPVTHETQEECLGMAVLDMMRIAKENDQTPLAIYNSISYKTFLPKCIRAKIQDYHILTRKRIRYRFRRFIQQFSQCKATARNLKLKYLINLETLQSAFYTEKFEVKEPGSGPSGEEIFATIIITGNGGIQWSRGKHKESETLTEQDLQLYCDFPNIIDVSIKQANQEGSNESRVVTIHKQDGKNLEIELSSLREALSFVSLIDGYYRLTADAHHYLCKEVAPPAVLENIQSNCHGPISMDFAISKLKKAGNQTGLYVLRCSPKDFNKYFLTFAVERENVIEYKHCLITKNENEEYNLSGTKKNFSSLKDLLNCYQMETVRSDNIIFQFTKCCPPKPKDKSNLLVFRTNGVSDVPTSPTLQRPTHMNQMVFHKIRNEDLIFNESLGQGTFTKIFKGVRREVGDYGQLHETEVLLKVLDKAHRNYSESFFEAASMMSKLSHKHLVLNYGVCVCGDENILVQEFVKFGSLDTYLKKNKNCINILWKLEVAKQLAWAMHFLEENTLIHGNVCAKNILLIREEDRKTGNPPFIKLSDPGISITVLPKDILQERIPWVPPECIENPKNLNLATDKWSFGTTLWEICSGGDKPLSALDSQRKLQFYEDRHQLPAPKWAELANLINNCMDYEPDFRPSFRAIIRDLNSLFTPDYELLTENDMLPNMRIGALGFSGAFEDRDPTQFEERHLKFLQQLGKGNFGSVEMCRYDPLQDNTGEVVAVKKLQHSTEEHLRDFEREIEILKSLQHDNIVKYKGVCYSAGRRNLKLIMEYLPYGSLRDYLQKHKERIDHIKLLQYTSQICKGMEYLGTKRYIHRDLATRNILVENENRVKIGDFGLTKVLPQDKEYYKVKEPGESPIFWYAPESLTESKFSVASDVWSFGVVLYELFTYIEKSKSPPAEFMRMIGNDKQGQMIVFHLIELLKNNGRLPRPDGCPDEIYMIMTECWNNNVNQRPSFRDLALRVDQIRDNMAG", "test": "JAK2 IC50 measurement", "type": "biochemical"}, "TYK2": {"biological_target": "TYK2 (Homo sapiens, UniProt P29597)", "sequence (P29597 whole entry)": "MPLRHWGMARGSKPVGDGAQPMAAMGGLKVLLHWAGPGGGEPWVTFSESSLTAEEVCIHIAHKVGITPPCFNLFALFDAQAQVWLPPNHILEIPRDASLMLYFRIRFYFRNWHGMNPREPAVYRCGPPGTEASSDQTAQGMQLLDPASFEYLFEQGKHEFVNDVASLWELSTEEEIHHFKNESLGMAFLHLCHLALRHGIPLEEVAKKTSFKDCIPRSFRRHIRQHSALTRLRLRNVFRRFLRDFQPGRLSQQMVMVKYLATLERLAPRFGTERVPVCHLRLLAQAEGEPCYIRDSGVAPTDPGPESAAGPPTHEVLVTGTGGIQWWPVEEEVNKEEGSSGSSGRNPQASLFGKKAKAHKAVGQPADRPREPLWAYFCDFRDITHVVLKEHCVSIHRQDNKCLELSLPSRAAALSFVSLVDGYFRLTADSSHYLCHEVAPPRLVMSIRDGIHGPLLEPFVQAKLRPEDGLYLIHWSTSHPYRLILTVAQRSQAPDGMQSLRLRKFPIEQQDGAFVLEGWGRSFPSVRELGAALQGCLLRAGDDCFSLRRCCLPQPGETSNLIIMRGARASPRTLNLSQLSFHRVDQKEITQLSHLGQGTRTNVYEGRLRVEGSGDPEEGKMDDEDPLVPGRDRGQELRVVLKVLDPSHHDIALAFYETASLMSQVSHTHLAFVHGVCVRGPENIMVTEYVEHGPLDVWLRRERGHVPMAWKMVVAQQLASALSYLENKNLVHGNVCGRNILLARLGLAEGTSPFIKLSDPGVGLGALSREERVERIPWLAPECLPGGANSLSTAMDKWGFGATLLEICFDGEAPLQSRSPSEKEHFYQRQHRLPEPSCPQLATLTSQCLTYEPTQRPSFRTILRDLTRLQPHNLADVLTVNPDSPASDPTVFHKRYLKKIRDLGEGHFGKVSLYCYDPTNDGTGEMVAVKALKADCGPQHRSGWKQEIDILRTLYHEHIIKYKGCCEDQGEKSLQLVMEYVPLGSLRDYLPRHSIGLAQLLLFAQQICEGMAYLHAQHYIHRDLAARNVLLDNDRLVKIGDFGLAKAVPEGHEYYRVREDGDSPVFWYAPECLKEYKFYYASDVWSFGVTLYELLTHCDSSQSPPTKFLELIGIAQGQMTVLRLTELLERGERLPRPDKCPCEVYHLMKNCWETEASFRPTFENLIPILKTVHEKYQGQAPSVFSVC", "test": "TYK2 IC50 measurement", "type": "biochemical"}, "JAK3 [2]": {"biological_target": "T1, JAK3", "test": "JAK3 IC50 measurement", "type": "biochemical"}}, "data": [{"smiles": "CNC(=O)c1cnc2[nH]ccc2c1N[C@H]1CCCN(Cc2cccc(Cl)c2)C1", "note": "[Compound 18a, (S)-4-((1-(3-Chlorobenzyl)piperidin-3-yl)amino)-N-methyl-1H-pyrrolo[2,3-b]pyridine-5-carboxamide]", "values": [{"measurement": "IC50", "setting": "JAK1", "value": 1.87, "unit": "µM"}]}, {"smiles": "CNC(=O)c1cnc2[nH]ccc2c1NC1CC(NCc2ccc(Cl)cc2)C1", "note": "(stereo not drawn) [Compound 16c, 4-((3-((4-Chlorobenzyl)amino)cyclobutyl)amino)-N-methyl-1H-pyrrolo[2,3-b]pyridine-5-carboxamide]", "values": [{"measurement": "IC50", "setting": "JAK1", "value": 0.0138, "unit": "µM"}]}, {"smiles": "CNC(=O)c1cnc2[nH]ccc2c1NC1CC(NCc2cccc(Cl)c2)C1", "note": "(stereo not drawn) [Compound 16b, 4-((3-((3-Chlorobenzyl)amino)cyclobutyl)amino)-N-methyl-1H-pyrrolo[2,3-b]pyridine-5-carboxamide]", "values": [{"measurement": "IC50", "setting": "JAK1", "value": 0.016, "unit": "µM"}]}, {"smiles": "CNC(=O)c1cnc2[nH]ccc2c1N[C@@H]1CCN(Cc2cccc(Cl)c2)[C@@H](C)C1", "note": "(relative stereo) [Compound 20b, 4-((trans-1-(3-Chlorobenzyl)-2-methylpiperidin-4-yl)amino)-N-methyl-11H-pyrrolo[2,3-b]pyridine-5-carboxamide]", "values": [{"measurement": "GI50", "setting": "JAK3 [1]", "value": 8.24, "unit": "µM"}]}, {"smiles": "CNC(=O)c1cnc2[nH]ccc2c1N[C@H]1CCCN(Cc2cccc(OC)c2)C1", "note": "[Compound 18b, (S)-4-((1-(3-Methoxybenzyl)piperidin-3-yl)amino)-N-methyl-1H-pyrrolo[2,3-b]pyridine-5-carboxamide]", "values": [{"measurement": "IC50", "setting": "JAK2", "value": 0.533, "unit": "µM"}, {"measurement": "Selectivity for JAK1 JAK2/JAK1", "setting": "JAK2", "value": 0.764}, {"measurement": "IC50", "setting": "TYK2", "value": 1.79, "unit": "µM"}, {"measurement": "Selectivity for JAK1 TYK2/JAK1", "setting": "TYK2", "value": 2.56}, {"measurement": "IC50", "setting": "JAK3 [2]", "value": 3.43, "unit": "µM"}, {"measurement": "Selectivity for JAK1 JAK3/JAK1", "setting": "JAK3 [2]; ratio of IC50 values", "value": 4.92}, {"measurement": "IC50", "setting": "JAK1", "value": 0.697, "unit": "µM"}]}, {"smiles": "CNC(=O)c1cnc2[nH]ccc2c1NC1CC(NCc2ccccc2)C1", "note": "(stereo not drawn) [Compound 16a, 4-((3-(Benzylamino)cyclobutyl)amino)-N-methyl-1H-pyrrolo[2,3-b]pyridine-5-carboxamide]", "values": [{"measurement": "IC50", "setting": "JAK1", "value": 0.13, "unit": "µM"}]}, {"smiles": "CNC(=O)c1cnc2[nH]ccc2c1NC1CC2CCC(C1)N2Cc1cccc(C#N)c1", "note": "(stereo not drawn) [Compound 17f, 4-((8-(3-Cyanobenzyl)-8-azabicyclo[3.2.1]octan-3-yl)amino)-N-methyl-1H-pyrrolo[2,3-b]pyridine-5-carboxamide]", "values": [{"measurement": "IC50", "setting": "JAK2", "value": 0.0588, "unit": "µM"}, {"measurement": "IC50", "setting": "TYK2", "value": 0.0922, "unit": "µM"}, {"measurement": "IC50", "setting": "JAK3 [2]", "value": 0.0447, "unit": "µM"}]}]}
